These results are taken from US20090304692A1, “TRIAZINE COMPOUNDS AS PI3 KINASE AND MTOR INHIBITORS” (Wyeth, priority 2008, published 2009).

One assay addresses Human mTOR (FLAG-TOR) (Homo sapiens, UniProt P42345). The assay can be described thus: mTOR kinase assay (DELFIA format, purified enzyme). The class given is biochemical. Particulars: read-out: IC50 mTOR.
The next assay concerns the target PI3K-α (Homo sapiens, UniProt P42336). The assay can be described thus: PI3K-alpha fluorescence polarization assay. The settings on record: read-out: IC50 PI3Kα. For orientation: In fluorescence polarisation assays a small probe gives low polarisation when free and higher when bound to something large.
The target of another assay is PI3K-γ (Homo sapiens, UniProt P48736). As to the kind of experiment: PI3K-gamma fluorescence polarization assay. Particulars: read-out: IC50 PI3Kγ.
Sequence of PI3K-γ (P48736 whole entry, species assumed): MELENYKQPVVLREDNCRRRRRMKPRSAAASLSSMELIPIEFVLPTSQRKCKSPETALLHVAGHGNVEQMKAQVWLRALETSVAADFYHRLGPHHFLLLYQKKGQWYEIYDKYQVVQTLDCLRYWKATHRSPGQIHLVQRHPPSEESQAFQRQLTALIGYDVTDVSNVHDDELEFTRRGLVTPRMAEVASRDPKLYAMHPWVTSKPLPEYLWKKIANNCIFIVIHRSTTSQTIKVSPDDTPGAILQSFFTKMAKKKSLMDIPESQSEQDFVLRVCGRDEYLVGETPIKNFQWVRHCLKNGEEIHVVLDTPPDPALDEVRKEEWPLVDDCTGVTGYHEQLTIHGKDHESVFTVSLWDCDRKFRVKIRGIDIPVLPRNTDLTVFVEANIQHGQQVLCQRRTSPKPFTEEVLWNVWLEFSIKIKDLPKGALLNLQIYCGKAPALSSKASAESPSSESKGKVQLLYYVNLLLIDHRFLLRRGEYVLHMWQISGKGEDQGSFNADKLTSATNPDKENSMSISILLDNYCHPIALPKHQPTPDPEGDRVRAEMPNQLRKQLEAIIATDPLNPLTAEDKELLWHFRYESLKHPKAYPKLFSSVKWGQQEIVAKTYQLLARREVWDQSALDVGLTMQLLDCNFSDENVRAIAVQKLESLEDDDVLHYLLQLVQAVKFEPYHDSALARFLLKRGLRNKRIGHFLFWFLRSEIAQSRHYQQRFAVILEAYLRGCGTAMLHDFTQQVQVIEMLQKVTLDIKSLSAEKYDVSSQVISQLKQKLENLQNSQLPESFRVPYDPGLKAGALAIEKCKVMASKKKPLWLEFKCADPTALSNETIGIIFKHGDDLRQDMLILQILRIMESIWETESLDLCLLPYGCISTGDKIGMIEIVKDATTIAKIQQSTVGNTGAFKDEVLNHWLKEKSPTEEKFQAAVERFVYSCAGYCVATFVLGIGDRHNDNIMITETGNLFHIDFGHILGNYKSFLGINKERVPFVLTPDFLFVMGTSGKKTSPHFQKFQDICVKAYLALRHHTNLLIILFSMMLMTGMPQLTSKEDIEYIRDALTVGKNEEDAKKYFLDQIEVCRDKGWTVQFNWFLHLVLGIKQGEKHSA

SMILES strings stand for the structures. pIC50: −log10 of the molar value. Where “and” joins values, the source holds several entries; their conditions need not be identical. Equal entries are not always repeated. Where two headings read alike, the source gives them in different places.

Sequence of PI3K-α (P42336 whole entry, species assumed): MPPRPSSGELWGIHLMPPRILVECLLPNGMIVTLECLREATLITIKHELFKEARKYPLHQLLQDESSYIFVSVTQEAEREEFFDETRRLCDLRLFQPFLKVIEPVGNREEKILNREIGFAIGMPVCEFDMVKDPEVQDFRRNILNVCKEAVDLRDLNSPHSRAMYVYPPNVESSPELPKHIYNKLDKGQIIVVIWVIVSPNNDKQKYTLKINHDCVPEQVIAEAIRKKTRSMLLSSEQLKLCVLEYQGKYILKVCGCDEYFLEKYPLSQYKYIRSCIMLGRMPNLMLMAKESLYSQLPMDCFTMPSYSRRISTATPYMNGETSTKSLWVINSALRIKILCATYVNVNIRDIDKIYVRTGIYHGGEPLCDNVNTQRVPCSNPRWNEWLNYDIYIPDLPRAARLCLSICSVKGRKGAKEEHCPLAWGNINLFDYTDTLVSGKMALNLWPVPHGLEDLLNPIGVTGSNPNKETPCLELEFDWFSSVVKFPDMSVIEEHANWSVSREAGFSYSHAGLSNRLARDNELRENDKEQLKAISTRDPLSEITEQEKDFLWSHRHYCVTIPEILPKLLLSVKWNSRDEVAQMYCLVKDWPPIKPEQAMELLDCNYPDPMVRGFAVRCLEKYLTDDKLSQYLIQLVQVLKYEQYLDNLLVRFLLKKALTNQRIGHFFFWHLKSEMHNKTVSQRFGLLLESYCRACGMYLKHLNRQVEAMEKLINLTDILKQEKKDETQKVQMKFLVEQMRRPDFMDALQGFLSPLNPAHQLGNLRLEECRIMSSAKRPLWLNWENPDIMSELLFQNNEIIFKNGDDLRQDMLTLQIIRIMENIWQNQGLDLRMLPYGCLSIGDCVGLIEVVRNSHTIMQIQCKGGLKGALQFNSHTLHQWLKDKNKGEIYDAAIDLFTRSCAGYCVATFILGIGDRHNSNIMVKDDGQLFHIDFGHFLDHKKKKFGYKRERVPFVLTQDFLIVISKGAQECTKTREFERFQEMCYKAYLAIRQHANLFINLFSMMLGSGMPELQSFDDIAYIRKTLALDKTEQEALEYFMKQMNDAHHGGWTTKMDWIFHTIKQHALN
Sequence of PI3K-α (P27986 whole entry partner, species assumed): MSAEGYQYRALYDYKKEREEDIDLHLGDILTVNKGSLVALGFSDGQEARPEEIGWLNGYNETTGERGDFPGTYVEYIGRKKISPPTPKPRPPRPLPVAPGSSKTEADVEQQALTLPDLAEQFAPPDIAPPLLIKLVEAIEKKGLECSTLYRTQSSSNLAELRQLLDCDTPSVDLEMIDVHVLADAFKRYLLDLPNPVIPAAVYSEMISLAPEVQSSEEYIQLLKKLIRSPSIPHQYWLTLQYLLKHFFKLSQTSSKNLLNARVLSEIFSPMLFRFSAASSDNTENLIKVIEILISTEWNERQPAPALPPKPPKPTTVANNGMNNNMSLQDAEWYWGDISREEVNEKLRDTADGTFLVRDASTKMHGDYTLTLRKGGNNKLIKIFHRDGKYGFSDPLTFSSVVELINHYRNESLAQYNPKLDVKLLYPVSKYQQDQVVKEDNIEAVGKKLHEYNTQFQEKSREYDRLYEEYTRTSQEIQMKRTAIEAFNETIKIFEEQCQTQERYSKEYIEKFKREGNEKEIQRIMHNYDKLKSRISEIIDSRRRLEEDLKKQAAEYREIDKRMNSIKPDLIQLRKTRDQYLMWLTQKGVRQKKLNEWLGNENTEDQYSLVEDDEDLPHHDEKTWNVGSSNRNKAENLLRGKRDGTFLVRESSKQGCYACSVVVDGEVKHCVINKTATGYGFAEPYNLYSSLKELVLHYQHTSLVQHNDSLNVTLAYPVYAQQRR
Sequence of Human mTOR (FLAG-TOR) (P42345 1360-2549 limits assumed): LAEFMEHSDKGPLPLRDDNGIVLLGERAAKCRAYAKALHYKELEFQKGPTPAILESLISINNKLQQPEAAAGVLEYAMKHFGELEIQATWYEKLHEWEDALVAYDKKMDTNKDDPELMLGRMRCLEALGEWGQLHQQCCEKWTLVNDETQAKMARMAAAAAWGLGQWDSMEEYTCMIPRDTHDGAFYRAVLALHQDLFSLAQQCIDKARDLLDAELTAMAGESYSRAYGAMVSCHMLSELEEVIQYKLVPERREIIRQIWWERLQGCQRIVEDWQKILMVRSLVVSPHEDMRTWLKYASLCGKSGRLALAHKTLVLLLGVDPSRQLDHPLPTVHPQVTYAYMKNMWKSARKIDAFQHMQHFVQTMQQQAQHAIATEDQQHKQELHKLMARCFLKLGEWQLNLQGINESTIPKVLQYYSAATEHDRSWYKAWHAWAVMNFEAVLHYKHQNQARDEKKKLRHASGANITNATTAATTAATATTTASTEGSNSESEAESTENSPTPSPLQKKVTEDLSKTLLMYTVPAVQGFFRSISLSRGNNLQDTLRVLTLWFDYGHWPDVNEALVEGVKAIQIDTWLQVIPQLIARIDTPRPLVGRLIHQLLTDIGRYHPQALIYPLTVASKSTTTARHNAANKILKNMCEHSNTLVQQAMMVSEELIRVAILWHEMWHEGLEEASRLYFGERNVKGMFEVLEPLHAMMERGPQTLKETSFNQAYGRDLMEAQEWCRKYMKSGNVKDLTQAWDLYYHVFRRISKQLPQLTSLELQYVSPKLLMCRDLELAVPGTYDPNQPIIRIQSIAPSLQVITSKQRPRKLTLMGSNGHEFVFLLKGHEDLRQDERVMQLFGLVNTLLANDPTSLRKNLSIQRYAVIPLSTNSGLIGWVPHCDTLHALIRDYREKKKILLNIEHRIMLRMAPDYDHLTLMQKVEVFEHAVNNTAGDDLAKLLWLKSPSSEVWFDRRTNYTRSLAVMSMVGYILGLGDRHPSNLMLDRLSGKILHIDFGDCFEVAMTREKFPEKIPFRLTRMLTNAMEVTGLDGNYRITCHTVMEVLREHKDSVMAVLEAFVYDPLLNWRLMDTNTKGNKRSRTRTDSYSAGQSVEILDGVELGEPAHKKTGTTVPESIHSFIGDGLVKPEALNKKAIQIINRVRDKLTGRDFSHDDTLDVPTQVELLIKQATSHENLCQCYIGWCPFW

`CCCCc1nc(-c2ccc(NC(=O)Nc3ccc(CN4CCN(C)CC4)cc3)cc2)nc(N2CCOCC2)n1` [Example 254, 1-[4-(4-butyl-6-morpholin-4-yl-1,3,5-triazin-2-yl)phenyl]-3-{4-[(4-methylpiperazin-1-yl)methyl]phenyl}urea]: the negative-log IC50 (pIC50) at Human mTOR (FLAG-TOR) was 7.77; at PI3K-α, 7.20; on PI3K-γ, 6.60.

As for `CC(C)(C)OC(=O)N1CC2CN(c3nc(-c4ccc(NC(=O)Nc5ccncc5)cc4)nc(N4CCOCC4)n3)CC(C1)O2` [Example 281, tert-butyl-7-(4-morpholin-4-yl-6-{4-[(pyridin-4-ylcarbamoyl)amino]phenyl}-1,3,5-triazin-2-yl)-9-oxa-3,7-diazabicyclo[3.3.1]nonane-3-carboxylate], the negative-log IC50 (pIC50) at Human mTOR (FLAG-TOR) is 5.55; at PI3K-α, 5.66; at PI3K-γ it was 5.30.

As for `O=C(Nc1ccncc1)Nc1ccc(-c2nc(N3CCOCC3)nc(N3CC4CNCC(C3)O4)n2)cc1` [Example 290, 1-{4-[4-morpholin-4-yl-6-(9-oxa-3,7-diazabicyclo[3.3.1]non-3-yl)-1,3,5-triazin-2-yl]phenyl}-3-pyridin-4-ylurea], the negative-log IC50 (pIC50) is 6.82 and 6.84 on Human mTOR (FLAG-TOR); 7.01 on PI3K-α; 6.78 at PI3K-γ.

For `CN1CC2CN(c3nc(-c4ccc(NC(=O)Nc5ccncc5)cc4)nc(N4CCOCC4)n3)CC(C1)O2` [Example 291, 1-{4-[4-(7-methyl-9-oxa-3,7-diazabicyclo[3.3.1]non-3-yl)-6-morpholin-4-yl-1,3,5-triazin-2-yl]phenyl}-3-pyridin-4-ylurea], the pIC50 on Human mTOR (FLAG-TOR) was 6.72; at PI3K-α, 6.43; at PI3K-γ, 6.15.

Take `CC(=O)N1CC2CN(c3nc(-c4ccc(NC(=O)Nc5ccncc5)cc4)nc(N4CCOCC4)n3)CC(C1)O2` [Example 292, 1-{4-[4-(7-acetyl-9-oxa-3,7-diazabicyclo[3.3.1]non-3-yl)-6-morpholin-4-yl-1,3,5-triazin-2-yl]phenyl}-3-pyridin-4-ylurea]: the pIC50 on Human mTOR (FLAG-TOR) is 7.15 and 7.17; at PI3K-α, 5.82; on PI3K-γ it was 5.43.

With `CS(=O)(=O)N1CC2CN(c3nc(-c4ccc(NC(=O)Nc5ccncc5)cc4)nc(N4CCOCC4)n3)CC(C1)O2` [Example 293, 1-(4-{4-[7-(methylsulfonyl)-9-oxa-3,7-diazabicyclo[3.3.1]non-3-yl]-6-morpholin-4-yl-1,3,5-triazin-2-yl}phenyl)-3-pyridin-4-yl urea], the pIC50 was 6.30 and 6.33 at Human mTOR (FLAG-TOR); 6.12 at PI3K-α; 6.27 on PI3K-γ.

As to `Cc1ccc(-c2nc(-c3ccc(NC(=O)Nc4ccc(N5CCC(N(C)C)CC5)cc4)cc3)nc(N3CCOCC3)n2)cc1` [Example 339, 1-{4-[4-(dimethylamino)piperidin-1-yl]phenyl}-3-{4-[4-(4-methylphenyl)-6-morpholin-4-yl-1,3,5-triazin-2-yl]phenyl}urea], the negative logarithm of the IC50 (pIC50) at Human mTOR (FLAG-TOR) is 7.05 and 7.10; at PI3K-α, 7.15; on PI3K-α (listed as 531) it was 7.15; at PI3K-γ, 6.31; at PI3K-γ (listed as 531), 6.31.

`Cc1ccc(-c2nc(-c3ccc(NC(=O)Nc4ccncc4)cc3)nc(N3CCOCC3)n2)cc1` [Example 340, 1-{4-[4-(4-methylphenyl)-6-morpholin-4-yl-1,3,5-triazin-2-yl]phenyl}-3-pyridin-4-ylurea]: the pIC50 at Human mTOR (FLAG-TOR) was 7.34 and 7.31; on PI3K-α, 7.04; on PI3K-γ, 6.15; on PI3K-γ (listed as 530) it was 6.15.

Regarding `Cc1ccc(-c2nc(-c3ccc(NC(=O)Nc4ccc(N5CCN(C)CC5)cc4)cc3)nc(N3CCOCC3)n2)cc1` [Example 343, 1-{4-[4-(4-methylphenyl)-6-morpholin-4-yl-1,3,5-triazin-2-yl]phenyl}-3-[4-(4-methylpiperazin-1-yl)phenyl]urea], the pIC50 on Human mTOR (FLAG-TOR) is 7.40 and 7.32; at PI3K-α, 7.01; on PI3K-α (listed as 526), 7.02; on PI3K-γ, 5.17; at PI3K-γ (listed as 526), 5.17.

With `COC(=O)c1ccc(NC(=O)Nc2ccc(-c3nc(-c4ccc(C)cc4)nc(N4CCOCC4)n3)cc2)cc1` [Example 344, methyl 4-[({4-[4-(4-methylphenyl)-6-morpholin-4-yl-1,3,5-triazin-2-yl]phenyl}carbamoyl)amino]benzoate], the pIC50 is 5.82 and 5.80 at Human mTOR (FLAG-TOR); 5.79 at PI3K-α; 5.79 at PI3K-α (listed as 528); 5.38 at PI3K-γ.

For `C[C@@H]1COCCN1c1nc(-c2ccc(NC(=O)Nc3ccncc3)cc2)nc(N2CCOC[C@H]2C)n1` [Example 397, 1-(4-(4,6-bis((R)-3-methylmorpholino)-1,3,5-triazin-2-yl)phenyl)-3-(pyridin-4-yl)urea], the pIC50 at Human mTOR (FLAG-TOR) was 9.80; at PI3K-α, 6.76; at PI3K-γ, 5.68.

Regarding `C[C@@H]1COCCN1c1nc(-c2ccc(NC(=O)Nc3cccnc3)cc2)nc(C2CCOCC2)n1` [Example 420, (R)-1-(4-(4-(3-methylmorpholino)-6-(tetrahydro-2H-pyran-4-yl)-1,3,5-triazin-2-yl)phenyl)-3-(pyridin-3-yl)urea], the pIC50 at Human mTOR (FLAG-TOR) was 9.20; at PI3K-α it was 6.23; at PI3K-γ, 5.36.

Regarding `C[C@@H]1COCCN1c1nc(-c2ccc(NC(=O)Nc3ccc(N4CCC(N(C)C)CC4)cc3)cc2)nc(N2CCOC[C@H]2C)n1` [Example 449, 1-(4-(4,6-bis((R)-3-methylmorpholino)-1,3,5-triazin-2-yl)phenyl)-3-(4-(4-(dimethylamino)piperidin-1-yl)phenyl)urea], the pIC50 on Human mTOR (FLAG-TOR) was 8.72; at PI3K-α it was 6.54; at PI3K-γ, 5.79.

`O=C(Nc1ccncc1)Nc1ccc(-c2nc(N3CCOCC3)nc(N3C4COCC(O)C3C4)n2)cc1` (stereo not drawn) [Example 480, 1-{4-[4-(5-hydroxy-3-oxa-7-azabicyclo[4.1.1]oct-7-yl)-6-morpholin-4-yl-1,3,5-triazin-2-yl]phenyl}-3-pyridin-4-ylurea]: the pIC50 at Human mTOR (FLAG-TOR) is 8.54; at PI3K-α it was 7.89; at PI3K-γ, 7.28.

On to `O=C(Nc1ccc(-c2nc(N3CCOCC3)nc(N3CCOCC3)n2)cc1)Nc1ccnnc1` [Example 481, 1-[4-(4,6-dimorpholin-4-yl-1,3,5-triazin-2-yl)phenyl]-3-pyridazin-4-ylurea], for which the pIC50 at Human mTOR (FLAG-TOR) was 8.64; at PI3K-α it was 7.96; on PI3K-γ, 7.19.

On to `O=C(Nc1ccc(-c2nc(N3CCOCC3)nc(N3C4CCC3COC4)n2)cc1)Nc1ccnnc1` [Example 483, 1-{4-[4-morpholin-4-yl-6-(3-oxa-8-azabicyclo[3.2.1]oct-8-yl)-1,3,5-triazin-2-yl]phenyl}-3-pyridazin-4-ylurea], for which the negative-log IC50 (pIC50) at Human mTOR (FLAG-TOR) is 8.81; on PI3K-α it was 7.55; on PI3K-γ, 6.82.

Turning to `COC(CNc1nc(-c2ccc(NC(=O)Nc3cccnc3)cc2)nc(N2CCOCC2)n1)OC` [Example 488, 1-(4-{4-[(2,2-dimethoxyethyl)amino]-6-morpholin-4-yl-1,3,5-triazin-2-yl}phenyl)-3-pyridin-3-ylurea], the negative-log IC50 (pIC50) at Human mTOR (FLAG-TOR) was 8.47; on PI3K-α it was 7.38; at PI3K-γ, 6.74.

On to `CC(C)c1nc(-c2ccc(NC(=O)Nc3ccc(I)cc3)cc2)nc(N2CCOCC2)n1` [Example 490, 1-(4-iodophenyl)-3-{4-[4-(1-methylethyl)-6-morpholin-4-yl-1,3,5-triazin-2-yl]phenyl}urea], for which the pIC50 at Human mTOR (FLAG-TOR) is 7.94; at PI3K-α, 6.23; on PI3K-γ, 5.97.

As for `CC(C)c1nc(-c2ccc(NC(=O)Nc3ccc(-c4cnc(N(C)C)nc4)cc3)cc2)nc(N2CCOCC2)n1` [Example 493, 1-{4-[2-(dimethylamino)pyrimidin-5-yl]phenyl}-3-{4-[4-(1-methylethyl)-6-morpholin-4-yl-1,3,5-triazin-2-yl]phenyl}urea], the pIC50 at Human mTOR (FLAG-TOR) is 7.49; at PI3K-α it was 5.53; on PI3K-γ, 5.97.

Take `COC(=O)c1ccc(NC(=O)Nc2ccc(-c3nc(-c4ccccc4)nc(N4CCOCC4)n3)cc2)cc1` [Example 538, methyl 4-({[4-(4-morpholin-4-yl-6-phenyl-1,3,5-triazin-2-yl)phenyl]carbamoyl}amino)benzoate]: the negative logarithm of the IC50 (pIC50) on Human mTOR (FLAG-TOR) was 9.90; at PI3K-α, 6.48; at PI3K-γ, 6.71.

With `C[C@H]1COCCN1c1nc(-c2ccc(NC(=O)Nc3ccc(C(=O)O)cc3)cc2)nc(N2CCOC[C@@H]2C)n1` [Example 549, 4-{[(4-{4,6-bis[(3S)-3-methylmorpholin-4-yl]-1,3,5-triazin-2-yl}phenyl)carbamoyl]amino}benzoic acid], the negative logarithm of the IC50 (pIC50) on Human mTOR (FLAG-TOR) is 7.58; on PI3K-α it was 6.14; at PI3K-γ, 5.34.

Consider `Cc1ccc(-c2nc(-c3ccc(NC(=O)Nc4ccc(C(=O)N5CCCCC5)cc4)cc3)nc(N3CCOCC3)n2)cc1` [Example 555, 1-{4-[4-(4-methylphenyl)-6-morpholin-4-yl-1,3,5-triazin-2-yl]phenyl}-3-[4-(piperidin-1-ylcarbonyl)phenyl]urea], for which the figures for the pIC50 at Human mTOR (FLAG-TOR), on PI3K-α and at PI3K-γ were 6.39, 7.06 and 6.42, respectively.

Regarding `COC(=O)c1ccc(NC(=O)Nc2ccc(-c3nc(-c4cccs4)nc(N4CCOCC4)n3)cc2)cc1` [Example 560, methyl 4-[({4-[4-morpholin-4-yl-6-(2-thienyl)-1,3,5-triazin-2-yl]phenyl}carbamoyl)amino]benzoate], the pIC50 at Human mTOR (FLAG-TOR) is 7.00; at PI3K-α, 6.57; on PI3K-γ it was 6.30.

In the case of `O=C(Nc1ccc(C(=O)O)cc1)Nc1ccc(-c2nc(N3CCCOCC3)nc(N3CCOCC3)n2)cc1` [Example 569, 4-[({4-[4-morpholin-4-yl-6-(1,4-oxazepan-4-yl)-1,3,5-triazin-2-yl]phenyl}carbamoyl)amino]benzoic acid], the pIC50 at Human mTOR (FLAG-TOR) was 8.10; on PI3K-α, 7.13; on PI3K-γ, 6.43.

Broadly, the pIC50 is the IC50 on a negative log10 scale, so that one unit is a factor of ten.
